According to the OligoGym collection:
Bases are written 5' to 3'; sugars and linkages follow in the same order, as letters with counts (s phosphorothioate, o phosphodiester; PS: all linkages phosphorothioate). C may stand for cytosine or 5-methylcytosine; the collection does not tell. l = locked nucleic acid (LNA); d = 2'-deoxy (DNA)

These sequences were tested against HIF1A (assay: HeLa, 100 nM transfected, 24 h, mean of 3). Settings: ASO.

Sequence	caspase activation (% of PBS control)
GTTACTGCCTTCTTAC (sugars ldlldddddddlddll, PS)	191
TGGCAAGCATCCTGTA (sugars l1 d10 l1 d2 l2, PS)	261
GTTACTGCCTTCTTAC (sugars l1 d1 l2 d11 l1, PS)	156
ACTGCCTTCTTAC (sugars l3 d7 l1 d1 l1, PS)	383
GCAAGCATCCTGT (sugars l2 d10 l1, PS)	279
GTTACTGCCTTCTTAC (sugars lddllddddddldldl, PS)	207
TGGCAAGCATCCTGTA (sugars l2 d2 l1 d9 l2, PS)	391
GTTACTGCCTTCTTAC (sugars l3 d8 l1 d1 l3, PS)	197
GTTACTGCCTTCTTAC (sugars l2 d1 l1 d11 l1, PS)	110
GGCAAGCATCCTG (sugars l4 d7 l2, PS)	528
TGGCAAGCATCCTGTA (sugars ldlddddddddldddl, PS)	160
GTTACTGCCTTCTTAC (sugars l2 d11 l1 d1 l1, PS)	129
ACTGCCTTCTTAC (sugars l1 d1 l2 d6 l3, PS)	247
TGGCAAGCATCCTGTA (sugars llldlddddddllddl, PS)	268
TGGCAAGCATCCTGTA (sugars ldlllddddddldddl, PS)	417
GTTACTGCCTTCTTAC (sugars l3 d1 l1 d6 l5, PS)	474
CAAGCATCCTGTA (sugars l1 d9 l3, PS)	135
TGGCAAGCATCCTGTA (sugars ldlllddddddllldl, PS)	490
TGGCAAGCATCCTGTA (sugars l1 d2 l2 d6 l5, PS)	366
GCAAGCATCCTGT (sugars l3 d7 l3, PS)	600
GCAAGCATCCTGT (sugars l1 d1 l1 d9 l1, PS)	165
GTTACTGCCTTCTTAC (sugars lddlddddddddlddl, PS)	112
CAAGCATCCTGTA (sugars l1 d11 l1, PS)	100
GTTACTGCCTTCTTAC (sugars lddldddddddllddl, PS)	135

Sequence	caspase activation (% of PBS control)
GTTACTGCCTTCTTAC (sugars ldddlddddddlldll, PS)	165
TGGCAAGCATCCTGTA (sugars l1 d12 l1 d1 l1, PS)	150
TGGCAAGCATCCTGTA (sugars llddlddddddddldl, PS)	215
GTTACTGCCTTCTTAC (sugars l2 d1 l2 d10 l1, PS)	161
GTTACTGCCTTCTTAC (sugars ldlldddddddddldl, PS)	142
GTTACTGCCTTCTTAC (sugars llddlddddddldddl, PS)	191
TTACTGCCTTCTT (sugars l3 d7 l3, PS)	291
GTTACTGCCTTCTTAC (sugars lldlddddddddlldl, PS)	187
TGGCAAGCATCCTGTA (sugars lddllddddddllddl, PS)	388
CAAGCATCCTGTA (sugars l4 d8 l1, PS)	194
GTTACTGCCTTCTTAC (sugars llddlddddddllddl, PS)	231
CAAGCATCCTGTA (sugars l1 d1 l1 d8 l2, PS)	171
GGCAAGCATCCTG (sugars l1 d2 l1 d8 l1, PS)	205
GTTACTGCCTTCT (sugars l1 d1 l2 d8 l1, PS)	136
GTTACTGCCTTCTTAC (sugars ldlllddddddldlll, PS)	427
GTTACTGCCTTCTTAC (sugars l3 d8 l2 d2 l1, PS)	273
GTTACTGCCTTCTTAC (sugars l1 d3 l1 d9 l2, PS)	103
TGGCAAGCATCCTGTA (sugars l2 d9 l2 d2 l1, PS)	422
TGGCAAGCATCCTGTA (sugars l2 d1 l1 d10 l2, PS)	501
TGGCAAGCATCCTGTA (sugars l5 d6 l1 d1 l3, PS)	443
GCAAGCATCCTGT (sugars l1 d11 l1, PS)	137
TACTGCCTTCTTA (sugars l2 d8 l3, PS)	363
GTTACTGCCTTCTTAC (sugars ldddlddddddllldl, PS)	261
TGGCAAGCATCCTGTA (sugars lldldddddddldldl, PS)	429

Sequence	caspase activation (% of PBS control)
GTTACTGCCTTCTTAC (sugars lldllddddddddldl, PS)	291
CAAGCATCCTGTA (sugars lddlddddddldl, PS)	100
TGGCAAGCATCCT (sugars l2 d9 l2, PS)	434
TACTGCCTTCTTA (sugars lddlddddddldl, PS)	133
GTTACTGCCTTCT (sugars l2 d8 l1 d1 l1, PS)	98.3
TGGCAAGCATCCTGTA (sugars l1 d1 l1 d12 l1, PS)	180
ACTGCCTTCTTAC (sugars l2 d8 l3, PS)	209
GTTACTGCCTTCTTAC (sugars ldllddddddddlddl, PS)	183
TGGCAAGCATCCTGTA (sugars l1 d2 l1 d10 l2, PS)	196
GTTACTGCCTTCTTAC (sugars ldldlddddddlddll, PS)	220
TGGCAAGCATCCTGTA (sugars ldlllddddddddldl, PS)	448
GTTACTGCCTTCTTAC (sugars l3 d9 l1 d1 l2, PS)	188
TGGCAAGCATCCTGTA (sugars ldldlddddddllddl, PS)	219
TGGCAAGCATCCTGTA (sugars lldllddddddllldl, PS)	474
GTTACTGCCTTCTTAC (sugars l1 d2 l2 d9 l2, PS)	149
CAAGCATCCTGTA (sugars l2 d8 l1 d1 l1, PS)	175
TGGCAAGCATCCT (sugars l3 d7 l1 d1 l1, PS)	268
TGGCAAGCATCCTGTA (sugars lldldddddddlldll, PS)	410
GTTACTGCCTTCTTAC (sugars lldlldddddddlldl, PS)	363
TGGCAAGCATCCTGTA (sugars l5 d8 l3, PS)	360
GTTACTGCCTTCTTAC (sugars lldllddddddldlll, PS)	278
GTTACTGCCTTCTTAC (sugars l1 d1 l1 d8 l5, PS)	298
GGCAAGCATCCTG (sugars l2 d1 l1 d7 l2, PS)	560
GTTACTGCCTTCTTAC (sugars ldldldddddddddll, PS)	151
